Data as given in patent publication EP0397567A1, “Antitumor substance, process for its preparation and pharmaceutical compositions containing it” (RHONE-POULENC SANTE, priority 1989, dated 1990).

Experiment: antitumor properties (studies mentioned, no method described)
Details: qualitative statement compared with girolline; no test system, dose or model printed

Row | SMILES | propriétés antitumorales
1 | NC[C@@H](Cl)[C@H](O)c1c[nH]c(N)n1 (racemic) [racémique thréo, amino-3 (amino-2 1H-imidazolyl-4)-1 chloro-2 propanol-1-(1RS,2RS)] | conserve les propriétés antitumorales remarquables de la girolline
2 | NC[C@H](Cl)[C@H](O)c1c[nH]c(N)n1 (racemic) [racémique érythro] | totalement inactifs
